In patent publication US6806265B2, “Non-nucleoside reverse transcriptase inhibitors” (priority 2002, dated 2004) one finds IC50 and EC50 data, which are given here for 22 molecules.

Test [1] concerns the target T1, HIV-1 RT double mutant K103N/Y181C (Human immunodeficiency virus type 1 group M subtype B, UniProt P03366, K702N/Y780C).
T1 construct: HIV-1 wild type reverse transcriptase as well as the clinically significant double mutant K103N/Y181C
The test can be described thus: biochemical. The method, then: (§1) Utilizing the Reverse Transcriptase (RT) Assay described below, compounds were tested for their ability to inhibit the RNA-dependent DNA polymerase activity of HIV-1 RT. Certain specific compounds described in the Examples and in Tables 1-4, were so tested. The results of this testing appear in Table 5 as ranges of IC50 (nM) and EC50 (nM).
(§2) Reverse Transcriptase (RT) Assays

Test [2] has as its target T2, HIV-1 wild type reverse transcriptase (Human immunodeficiency virus type 1 group M subtype B, UniProt P03366).
T2 construct: HIV-1 wild type reverse transcriptase
Kind of test: biochemical. The settings on record: wild type RT; read-out: IC50 WT RT. On the procedure: as §1, §2

Another test concerns HIV-1 wild type. The test can be described thus: microbe, parasite or virus in culture. In kind it is cell-based.
Test [3] has as its system HIV-1 double mutant K103N/Y181C. The test can be described thus: microbe, parasite or virus in culture. The class given is cell-based.
The mark [4] stands for this setting: RT double mutant K103N/Y181C, read-out: IC50 K103N/Y181C.
The mark [5] stands for this setting: wild type, read-out: EC50 WT RT.
[6] abbreviates: double mutant K103N/Y181C, read-out: EC50 K103N/Y181C.
[7] abbreviates: Human immunodeficiency virus 1, wild type, read-out: EC50 WT RT.
[8] abbreviates: Human immunodeficiency virus 1, read-out: EC50 K103N/Y181C (nM).
[9] abbreviates: Human immunodeficiency virus 1, read-out: EC50 WT RT (nM).

Like-named read-outs stand apart in the source and are kept apart here.

`CCN1c2ncc(CCOc3ccc(-c4ccc(C(=O)O)cc4)cc3C)cc2C(=O)N(C)c2cccnc21` [Entry 1003]: the IC50 in test [1] (setting [4]) and in test [2] was less than 50 nM throughout. Also, the EC50 (with HIV-1 wild type (setting [5]); in test [3] (setting [6])) was less than 10 nM throughout.

Regarding `CCN1c2ncc(CCOc3ccc(C(=O)Nc4ccc(C(=O)O)cc4)cc3C)cc2C(=O)Nc2c(C)ccnc21` [Entry 3017], the IC50 in test [1] (setting [4]) and in test [2] was less than 50 nM throughout. For the same molecule, the results for the EC50 (with HIV-1 wild type (setting [5]); in test [3] (setting [6])) were 10 to 50 nM and more than 50 nM, respectively.

`CCN1c2ncc(CCOc3ccc(C(=O)Nc4nc(CC(=O)O)cs4)cc3C)cc2C(=O)N(C)c2cccnc21` [Entry 3007]: the IC50 in test [1] and in test [2] was less than 50 nM each time. The EC50 with HIV-1 wild type (setting [7]) is 10 to 50 nM; in test [3] (setting [8]), more than 50 nM.

As to `CCN1c2ncc(CCOc3ccc(S(=O)(=O)Nc4ccc(C(=O)O)cc4)cc3C)cc2C(=O)N(C)c2cccnc21` [Entry 3030], the IC50 in test [1] (setting [4]) and in test [2] was less than 50 nM each time. Also, the EC50 (with HIV-1 wild type (setting [5]); in test [3] (setting [6])) was more than 50 nM throughout.

Regarding `CCN1c2ncc(CCOc3ccc(-c4csc(N)n4)cc3C)cc2C(=O)N(C)c2cccnc21` [Entry 1093, 8-{2-[4-(2-Amino-4-thiazolyl)-2-methylphenoxy]ethyl}-11-ethyl-5,11-dihydro-5-methyl-6H-dipyrido[3,2-b:2′,3′-e][1,4]diazepin-6-one], the IC50 in test [1] and in test [2] was less than 50 nM throughout. Further, the EC50 (with HIV-1 wild type (setting [7]); in test [3] (setting [8])) was less than 10 nM throughout.

As for `CCN1c2ncc(CCOc3ccc(C(=O)NS(C)(=O)=O)cc3C)cc2C(=O)N(C)c2cccnc21` [Entry 4013, 4-[2-(11-Ethyl-6,11-dihydro-5-methyl-6-oxo-5H-dipyrido[3,2-b:2′,3′-e][1,4]diazepin-8-yl)ethoxy]-3-methyl-N-(methylsulfonyl)benzamide], the IC50 is more than 100 nM in test [1] and less than 50 nM in test [2]. Further, the EC50 with HIV-1 wild type (setting [7]) was 10 to 50 nM; in test [3] (setting [8]), more than 50 nM.

Consider `CCN1c2ncc(CCOc3ccc(C(=O)NCC(CC)(CC)C(=O)O)cc3C)cc2C(=O)N(C)c2cccnc21` [Entry 4014], for which the IC50 in test [1] and in test [2] was less than 50 nM in each case. Besides, the values for the EC50 (with HIV-1 wild type (setting [7]); in test [3] (setting [8])) were less than 10 nM and 10 to 50 nM, respectively.

As to `CCN1c2ncc(CCOc3ccc(-c4cc[n+]([O-])cc4)cc3)cc2C(=O)N(C)c2cccnc21` [Entry 1091, 11-Ethyl-5,11-dihydro-5-methyl-8-{2-[4-(1-oxido-4-pyridinyl)phenoxy]ethyl}-6H-dipyrido[3,2-b:2′,3′-e][1,4]diazepin-6-one], the IC50 in test [1] and in test [2] was less than 50 nM throughout. Also, the EC50 (with HIV-1 wild type (setting [7]); in test [3] (setting [8])) was less than 10 nM each time.

Regarding `CCN1c2ncc(CCOc3ccc(-c4ccc(C(=O)O)cc4)c(C)c3)cc2C(=O)N(C)c2cccnc21` [Entry 1005], the IC50 in test [1] (setting [4]) was more than 100 nM; in test [2], less than 50 nM. The EC50 with HIV-1 wild type (setting [5]) is 10 to 50 nM; in test [3] (setting [6]), more than 50 nM.

With `CCN1c2ncc(CCOc3ccc(Nc4cccc(CC(=O)O)c4)cc3C)cc2C(=O)N(C)c2cccnc21` [Entry 3024], the IC50 in test [1] and in test [2] was less than 50 nM throughout. Moreover, the EC50 (in the test on HIV-1 wild type (setting [9]); in test [3] (setting [8])) was less than 10 nM each time.

For `CCN1c2ncc(CCOc3ccc(NC(=O)C4CC4C(=O)O)cc3C)cc2C(=O)N(C)c2cccnc21` (stereo not shown) [Entry 4009], the IC50 in test [1] is more than 100 nM; in test [2] it was less than 50 nM. The EC50 with HIV-1 wild type (setting [7]) is less than 10 nM; in test [3] (setting [8]), more than 50 nM.

On to `CCN1c2ncc(CCOc3ccc(C(=O)Nc4cccn(CC(=O)O)c4=O)cc3C)cc2C(=O)N(C)c2cccnc21` [Entry 3012], for which the IC50 is 50 to 100 nM in test [1] and less than 50 nM in test [2]. Further, the EC50 (with HIV-1 wild type (setting [7]); in test [3] (setting [8])) was more than 50 nM each time.

As for `CCN1c2ncc(CCOc3ccc(-c4cccc(CC(=O)O)c4)cc3)cc2C(=O)N(C)c2cccnc21` [Entry 1014], the values for the IC50 in test [1] (setting [4]) and in test [2] were more than 100 nM and less than 50 nM, respectively. The values for the EC50 (in the test on HIV-1 wild type (setting [5]); in test [3] (setting [6])) were less than 10 nM and 10 to 50 nM, respectively.

As for `CCN1c2ncccc2NC(=O)c2cc(CCOc3ccc(-c4ccc(CC(=O)O)cc4)cc3C)cnc21` [Entry 1058], the results for the IC50 in test [1] (setting [4]) and in test [2] were 50 to 100 nM and less than 50 nM, respectively. The EC50 was less than 10 nM in the test with HIV-1 wild type (setting [5]) and 10 to 50 nM in test [3] (setting [6]).

Take `CCN1c2ncc(CCOc3ccc(C(=O)Nc4ccc(C(=O)O)cc4)cc3C)cc2C(=O)N(C)c2cccnc21` [Entry 3001, 4-{{4-[2-(11-Ethyl-6,11-dihydro-5-methyl-6-oxo-5H-dipyrido[3,2-b:2′,3′-e][1,4]diazepin-8-yl)ethoxy]-3-methylbenzoyl}amino}benzoic acid]: the IC50 in test [1] and in test [2] was less than 50 nM throughout. In addition, the EC50 was less than 10 nM in the test on HIV-1 wild type (setting [9]) and 10 to 50 nM in test [3] (setting [8]).

For the molecule `CCN1c2ncc(CCOc3ccc(-c4cccc(C(=O)O)c4)cc3C)cc2C(=O)N(C)c2cccnc21` [Entry 1013, 4′-[2-(11-Ethyl-6,11-dihydro-5-methyl-6-oxo-5H-dipyrido[3,2-b:2′,3′-e][1,4]diazepin-8-yl)ethoxy]-3′-methyl-[1,1′-biphenyl]-3-carboxylic acid], the IC50 in test [1] and in test [2] was less than 50 nM throughout. For the same molecule, the EC50 in the test with HIV-1 wild type (setting [9]) was less than 10 nM; in test [3] (setting [8]), 10 to 50 nM.

In the case of `CCN1c2ncc(CCOc3ccc(-c4c[nH]cn4)cc3C)cc2C(=O)N(C)c2cccnc21` [Entry 1094, 11-Ethyl-5,11-dihydro-8-{2-[4-(1H-imidazol-4-yl)-2-methylphenoxy]ethyl}-5-methyl-6H-dipyrido[3,2-b:2′,3′-e][1,4]diazepin-6-one], the IC50 in test [1] and in test [2] was less than 50 nM throughout. For the same molecule, the EC50 (with HIV-1 wild type (setting [7]); in test [3] (setting [8])) was less than 10 nM throughout.

In the case of `CCN1c2ncc(CCOc3ccc(C(=O)Nc4ccccc4C(=O)O)cc3C)cc2C(=O)N(C)c2cccnc21` [Entry 3011], the values for the IC50 in test [1] and in test [2] were more than 100 nM and less than 50 nM, respectively. For the same molecule, the EC50 is 10 to 50 nM in the test with HIV-1 wild type (setting [9]) and more than 50 nM in test [3] (setting [8]).

In the case of `CCN1c2ncc(CCOc3ccc(C(=O)NC(C)(C)CC(=O)O)cc3C)cc2C(=O)N(C)c2cccnc21` [Entry 4017], the IC50 was more than 100 nM in test [1] and less than 50 nM in test [2]. Moreover, the EC50 in the test with HIV-1 wild type (setting [7]) is less than 10 nM; in test [3] (setting [8]), more than 50 nM.

`CCN1c2ncc(CCOc3ccc(-c4cccc(CC(=O)O)c4)cc3C)cc2C(=O)N(C)c2cccnc21` [Entry 1015]: the IC50 in test [1] (setting [4]) and in test [2] was less than 50 nM in each case. In addition, the EC50 (with HIV-1 wild type (setting [5]); in test [3] (setting [6])) was less than 10 nM in each case.

As to `CCN1c2ncc(CCOc3ccc(C(=O)NN)cc3C)cc2C(=O)N(C)c2cccnc21` [Entry 4011, 4-[2-(11-Ethyl-6,11-dihydro-5-methyl-6-oxo-5H-dipyrido[3,2-b:2′,3′-e][1,4]diazepin-8-yl)ethoxy]-3-methylbenzoic acid hydrazide], the IC50 in test [1] and in test [2] was less than 50 nM each time. For the same molecule, the EC50 (with HIV-1 wild type (setting [7]); in test [3] (setting [8])) was less than 10 nM each time.

`CCN1c2ncc(CCOc3ccc(-c4ccc(C(=O)O)cc4)c(Cl)c3)cc2C(=O)N(C)c2cccnc21` [Entry 1006]: the IC50 in test [1] (setting [4]) was 50 to 100 nM; in test [2], less than 50 nM. For the same molecule, the EC50 in the test on HIV-1 wild type (setting [5]) is 10 to 50 nM; in test [3] (setting [6]), more than 50 nM.
